From ChEMBL document CHEMBL1135053, “Affinity-driven selection of tripeptide inhibitors of ribonucleotide reductase” (Bioorg Med Chem Lett, 2002)
Residues, ends and D or L forms follow the SMILES beside them. *: point of attachment. Fmoc = O=C(OCC1c2ccccc2-c2ccccc21)*

Test: Mouse ribonucleotide reductase (mRR) activity was determined by relative dissociation constant which was assayed for binding activity to mR1

Compound	Relative Kd
O=C(N[C@H](C(=O)O)c1ccccc1)OCC1c2ccccc2-c2ccccc21	31
O=C(N[C@@H](Cc1c[nH]c2ccccc12)C(=O)O)OCC1c2ccccc2-c2ccccc21	18
O=C(N[C@@H](Cc1ccccc1)C(=O)O)OCC1c2ccccc2-c2ccccc21	22
CC(=O)N[C@@H](Cc1ccccc1)C(=O)N[C@H](C(=O)N[C@@H](CC(C)C)C(=O)N[C@@H](CC(=O)O)C(=O)N[C@@H](C)C(=O)N[C@@H](CC(=O)O)C(=O)N[C@@H](Cc1ccccc1)C(=O)O)[C@@H](C)O (Ac-FTLDADF-OH)	1

Now from value to compound:

Relative Kd	Compound
38	CC(C)C[C@H](NC(=O)OCC1c2ccccc2-c2ccccc21)C(=O)O
1	O=C(N[C@@H](Cc1c[nH]c2ccccc12)C(=O)N[C@@H](Cc1ccccc1)C(=O)N[C@@H](Cc1ccccc1)C(=O)O)OCC1c2ccccc2-c2ccccc21 (Fmoc-Trp-Phe-Phe-OH)
